{"source": "patent US20230219952A1", "about": "“PROCESS FOR PREPARING METHYL {4,6-DIAMINO-2-[5-FLUORO-1-(2-FLUOROBENZYL)-1H-PYRAZOLO[3,4-B]PYRIDIN-3 -YL]PYRIMIDIN-5-YL} CARBAMATE” (ADVERIO PHARMA GMBH, priority 2020, published 2023)", "assay_type_in_all_cases": "physicochemical", "key": {"[1]": {"experiment": "Isolation in an inverting filter centrifuge, industrial scale (isolability)", "source_text": "In the context of the present invention and as outlined in WO2020/126983, improved isolability of the active compound product, dischargeability of the active compound product after isolation and drying and also conveyability, sieveability and micronizability of the active compound product of the compound of the formula (I) are to be understood as meaning the following, for example: Improved isolability is measurable on an industrial scale for example via a higher area-specific throughput in an inverting filter centrifuge (Example 16). In the context of the present invention the isolation of the active compound product is carried out using for example a filter centrifuge, for example an inverting filter centrifuge. […] This manifests for example in a higher area-specific throughput in the inverting filter centrifuge. On an industrial scale isolation of the material from the process of WO 2013/076168 achieved an average area-specific throughput of 1.6 kg/m^2 h. The average area-specific throughput of the material from the process of the invention was 3.0 kg/m^2 h and thus nearly double the above (Example 16). Higher area-specific throughput in an inverting filter centrifuge. Industrial scale."}, "[2]": {"experiment": "Sieving of active compound product on an industrial sieving machine (sieveability)", "conditions": "for Sieve throughput of active compound product: industrial scale, Frewitt Oscillowitt MG-800 (2.5 to 4.0 mm) for WO 2013/076168 material, Frewitt Coniwitt TC200 (3 mm) for material of the invention; for Time to sieve 65 kg of active compound product: Frewitt Coniwitt TC200, sieve aperture diameter 3 mm", "method": "Improved sieveability is measurable for example via improved feeding into the industrial sieving machine as a result of improved flowability of the active compound product and via fewer sieve blockages, for example via the throughput of active compound product per unit time (Example 17).\nIn the context of the present invention the sieving of the active compound product is carried out for example using a Frewitt Coniwitt TC200 sieving machine (sieve aperture diameter 3 mm) or a Frewitt Oscillowitt MG-800 sieving machine (sieve aperture diameter 2.5 mm to 4.0 mm).\nImproved sieveability: The material from the process of the invention is easy to feed into the sieving machine on account of its good flowability. Sieving results in markedly fewer sieve blockages than for material from the process according to route 1. For example on an industrial scale 65 kg of the material from the process of the invention were sievable in <5 min in a Frewitt Coniwitt TC200 sieving machine (sieve aperture diameter 3 mm). This corresponds to >13 kg/min. For comparison sieving material from route 1 via a Frewitt Oscillowitt MG-800 sieving machine (sieve aperture diameter 2.5 mm to 4.0 mm) only achieved throughputs of <10 kg/h. This corresponds to <0.17 kg/min (Example 17). Observed here is a very large difference of a factor of nearly 100 in the sieve throughput of the active compound product of route 1 compared to the active compound product of the invention. This very large difference in sieve throughput results predominantly from the material characteristics of the active compound product and cannot be explained by the different machine types.\nImproved sieve throughput. Industrial scale."}, "[3]": {"experiment": "Dischargeability from the inverting filter centrifuge, industrial scale", "conditions": "listed as material from the process of the invention", "source_text": "Improved dischargeability from the isolation apparatus: The process according to the process of the present invention prevents the formation of a felt-like filter cake having high tear strength. Both after isolation in the pressure filter and after isolation in the filter centrifugation the filter cake is soft and moldable. This prevents blockage of the discharge path. For example on an industrial scale a blockage of the discharge path from the inverting filter centrifuge after isolation of the material from the process of WO 2013/076168 was avoidable only by reducing the filter cake thickness to 8 mm to 9 mm. By contrast in the isolation of the material from the process of the invention an average filter cake height of 25 mm was realized without any blocking of the discharge path being observed."}, "[4]": {"conditions": "listed as material from the process of the invention"}}, "note": "Where two headings read alike, the source gives them in different places."}
{"smiles": "COC(=O)Nc1c(N)nc(-c2nn(Cc3ccccc3F)c3ncc(F)cc23)nc1N", "note": "[Process of WO 2013/076168, methyl {4,6-diamino-2-[5-fluoro-1-(2-fluorobenzyl)-1H-pyrazolo[3,4-b]pyridin-3-yl]pyrimidin-5-yl}carbamate, reference compound]", "values": [{"measurement": "Average area-specific throughput", "setting": "[1]", "value": 1.6, "unit": "kg/m^2h"}, {"measurement": "Average area-specific throughput", "setting": "[1]; listed as material from the process of WO 2013/076168", "value": 1.6, "unit": "kg/m^2h"}, {"measurement": "Sieve throughput", "setting": "[2]; Frewitt Oscillowitt MG-800, sieve aperture diameter 2.5 mm to 4.0 mm", "value": "< 10", "unit": "kg/h"}, {"measurement": "Amount of active compound product sieved in 1 h", "setting": "[2]; Frewitt Oscillowitt MG-800, sieve aperture diameter 2.5 to 4.0 mm, in 1 h", "value": "<10 kg of active compound"}, {"measurement": "Sieve throughput of active compound product", "setting": "[2]", "value": "i.e. <0.17 kg/min"}, {"measurement": "Sieve throughput of active compound product", "setting": "[2]; listed as material from route 1", "value": "< 0.17", "unit": "kg/min"}]}
{"smiles": "COC(=O)Nc1c(N)nc(-c2nn(Cc3ccccc3F)c3ncc(F)cc23)nc1N", "note": "[Process of the invention, methyl {4,6-diamino-2-[5-fluoro-1-(2-fluorobenzyl)-1H-pyrazolo[3,4-b]pyridin-3-yl]pyrimidin-5-yl}carbamate]", "values": [{"measurement": "Average area-specific throughput", "setting": "[1]", "value": 3.0, "unit": "kg/m^2h"}, {"measurement": "Average area-specific throughput", "setting": "[1]; [4]", "value": 3.0, "unit": "kg/m^2h"}, {"measurement": "Time to sieve 65 kg of active compound product", "setting": "[2]", "value": "product in <5 min"}, {"measurement": "Time to sieve 65 kg of active compound product", "setting": "[2]; [4]", "value": "< 5", "unit": "min"}, {"measurement": "Sieve throughput of active compound product", "setting": "[2]", "value": "i.e. >13 kg/min"}, {"measurement": "Sieve throughput of active compound product", "setting": "[2]; [4]", "value": "> 13", "unit": "kg/min"}, {"measurement": "Filter cake thickness at which the discharge path does not become blocked", "setting": "[3]", "value": 25, "unit": "mm"}]}
